Columns and labels:
[1] = target: angiotensin II AT1 receptor; experiment: Assay A: Angiotensin II binding activity (125I-AII displacement, rat uterine membrane preparation)
Procedure: Assay A: Antiotensin II Binding Activity
Compounds of the invention were tested for ability to bind to the smooth muscle angiotensin II receptor using a rat uterine membrane preparation. […] Rat uterine membranes were prepared from fresh tissue. All procedures were carried out at 4° C. Uteri were stripped of fat and homogenized in phosphate-buffered saline at pH 7.4 containing 5 mM EDTA. The homogenate was centrifuged at 1500×g for 20 min., and the supernatant was recentrifuged at 100,000×g for 60 min. The pellet was resuspended in buffer consisting of 2 mM EDTA and 50 mM Tris-HCl (pH 7.5) to a final protein concentration of 4 mg/ml. […] The reaction was initiated by the addition of membrane protein and the mixture was incubated at 25° C. for 60 min. The incubation was terminated with ice-cold 50 mM Tris-HCl (pH 7.5) and the mixture was filtered to separate membrane-bound labelled peptide from the free ligand. The incubation tube and filter were washed with ice-cold buffer. Filters were assayed for radioactivity in a Micromedic gamma counter.
Nonspecific binding was defined as binding in the presence of 10 μM of unlabelled AII. Specific binding was calculated as total binding minus nonspecific binding. […] Binding data were analyzed by a nonlinear least-squares curve fitting program.

[2] = test system: pressor response to AII; experiment: Assay C: In vivo intragastric pressor assay response for AII antagonists; set-up: species or system rat; conditions: intragastric, or intraduodenal for examples listed; for inhibition at 3 mg/kg / Assay C Duration: dose 3 mg/kg
Procedure: Assay C: In Vivo Intragastric Pressor Assay Response for AII Antagonists
Male Sprague-Dawley rats weighing 225-300 grams were anesthetized with methohexital (30 mg/kg, i.p.) and catheters were implanted into the femoral artery and vein. The catheters were tunneled subcutaneously to exit dorsally, posterior to the head and between the scapulae. The catheters were filled with heparin (1000 units/ml of saline). The rats were returned to their cage and allowed regular rat chow and water ad libitum. After full recovery from surgery (3-4 days), rats were placed in Lucite holders and the arterial line was connected to a pressure transducer. Arterial pressure was recorded on a Gould polygraph (mmHg). Angiotensin II was administered as a 30 ng/kg bolus via the venous catheter delivered in a 50 μl volume with a 0.2 ml saline flush. The pressor response in mm Hg was measured by the differer.-:e from pre-injection arterial pressure to the maximum pressure achieved. The AII injection was repeated every 10 minutes until three consecutive injections yielded responses within 4 mmHg of each other. These three responses were then averaged and represented the control response to AII. The test compound was suspended in 0.5% methylcellulose in water and was administered by gavage. The volume administered was 2 ml/kg body weight. The standard dose was 3 mg/kg. Angiotensin II bolus injections were given at 30, 45, 60, 75, 120, 150, and 180 minutes after gavage. The pressor response to AII was measured at each time point. The rats were then returned to their cage for future testing. A minimum of 3 days was allowed between tests. Percent inhibition was calculated for each time point following gavage by the following formula:
[(Control Response—Response at time point)/Control Response]×100.

SMILES | IC50 [1] [nM] | inhibition at 3 mg/kg ([2]; Rattus norvegicus) [%] | Assay C Duration [2] [min] | inhibition at 10 mg/kg ([2]; Rattus norvegicus) [%] | inhibition at 30 mg/kg ([2]; Rattus norvegicus) [%] | inhibition at 100 mg/kg ([2]; Rattus norvegicus, dose 100 mg/kg) [%] | Assay C Inhibition ([2]; dose cell empty (dose not given)) [%]
CCCCn1nc(C(=O)N(C)C(C)(C)C)nc1Cc1ccc(-c2ccccc2-c2nnn[nH]2)nc1 [Compound 171] | 28 | 0 | 0 | – | – | – | –
CCCCn1cc(CCC2CC2)n(Cc2ccc(-c3ccccc3-c3nnn[nH]3)nc2)c1=O [Compound 193] | 11 | 10 | 180 | – | – | – | –
CCCCCc1cn(CCCC)c(=O)n1Cc1ccc(-c2ccccc2-c2nnn[nH]2)nc1 [Compound 190] | 10 | 10 | 180 | – | – | – | –
CCCCc1nc(CCCC)n(Cc2ccc(-c3ccccc3-c3nnn[nH]3)cc2)n1 [compound 3] | – | – | – | 50 | 100 | – | –
CCCCc1cn(CCC(C)C)c(=O)n1Cc1ccc(-c2ccccc2-c2nnn[nH]2)nc1 [Compound 198] | 7.6 | 35 | >180 | – | – | – | –
CCCCc1nc(CCCC)n(Cc2ccc(-c3ccccc3C(=O)NNS(=O)(=O)C(F)(F)F)cc2)n1 [compound 5] | – | – | – | – | 38 | – | –
CCCCc1nc(Cl)n(Cc2ccc(-c3ccccc3-c3nnn[nH]3)cc2)n1 [compound 9] | – | – | – | – | 80 | 100 | –
CCCCn1nc(CCc2cccs2)nc1Cc1ccc(-c2ccccc2-c2nnn[nH]2)nc1 [Compound 153] | 13 | 25 | >180 | – | – | – | –
CCCCc1cn(CCC2CC2)c(=O)n1Cc1ccc(-c2ccccc2-c2nnn[nH]2)nc1 [Compound 206] | 5.4 | 30 | >180 | – | – | – | –
CCCCc1cn(C(C)C)c(=O)n1Cc1ccc(-c2ccccc2-c2nnn[nH]2)nc1 [Compound 200] | 20 | 45 | >180 | – | – | – | –
CCCCCn1cc(CCCC)n(Cc2ccc(-c3ccccc3-c3nnn[nH]3)nc2)c1=O [Compound 199] | 10 | 60 | >180 | – | – | – | –
CCCCn1nc(C(O)CCC)nc1Cc1ccc(-c2ccccc2-c2nnn[nH]2)nc1 (stereo not shown) [Compound 159] | 21 | 10 | 150 | – | – | – | –
CCCCc1cn(CCCC)c(=O)n1Cc1ccc(-c2ccccc2-c2nnn[nH]2)nc1 [Compound 185] | 6.5 | 50 | >180 | – | – | – | –
CCCCn1nc(C(OC)OC)nc1Cc1ccc(-c2ccccc2-c2nnn[nH]2)nc1 [Compound 175] | 27 | 0 | 0 | – | – | – | –
CCCCc1nc(CCCC)n(Cc2ccc(-c3ccccc3-c3nnn[nH]3)nc2)n1 [Compound 241] | – | 40 | – | – | – | – | –
CCCCn1nc(C(F)(F)CCC)nc1Cc1ccc(-c2ccccc2-c2nnn[nH]2)nc1 [Compound 170] | 26 | 40 | >180 | – | – | – | –
CCCCc1nn(CC(=O)c2ccccc2)c(=O)n1Cc1ccc(-c2ccccc2-c2nn[nH]n2)cc1 [Compound 82] | 7.9 | – | – | – | – | – | 20
CCCCc1nc(CCCC)n(Cc2ccc(-c3ccccc3C(=O)O)cc2)n1 [compound 2] | – | – | – | 95 | 98 | – | –
CCCCc1cn(C(C)(C)C)c(=O)n1Cc1ccc(-c2ccccc2-c2nnn[nH]2)nc1 [Compound 201] | 17 | 10 | 180 | – | – | – | –
CCCCc1cn(C2CCCCC2)c(=O)n1Cc1ccc(-c2ccccc2-c2nnn[nH]2)nc1 [Compound 205] | 20 | 40 | >180 | – | – | – | –
CCCCc1nc(C(F)(F)CCC)nn1Cc1ccc(-c2ccccc2-c2nnn[nH]2)cc1 [compound 10] | – | 86 | – | – | 100 | – | –
CCCCc1nc(CCCN)n(Cc2ccc(-c3ccccc3-c3nnn[nH]3)cc2)n1 [Compound 71] | 12000 | – | – | – | – | – | –
CCCCCCCCc1nc(CCCC)n(Cc2ccc(-c3ccccc3-c3nnn[nH]3)cc2)n1 [Compound 29] | 160 | – | – | – | – | – | –

Further lines, with some results ahead:

IC50 [1] [nM] | SMILES | inhibition at 3 mg/kg ([2]; Rattus norvegicus) [%] | Assay C Duration [2] [min] | inhibition at 10 mg/kg ([2]; Rattus norvegicus) [%] | inhibition at 30 mg/kg ([2]; Rattus norvegicus) [%] | inhibition at 100 mg/kg ([2]; Rattus norvegicus, dose 100 mg/kg) [%] | Assay C Inhibition ([2]; dose cell empty (dose not given)) [%]
97 | CCCCc1cn(-c2ccccc2C(C)C)c(=O)n1Cc1ccc(-c2ccccc2-c2nnn[nH]2)cc1 [Compound 272] | 70 | >180 | – | – | – | –
5.4 | CCCCc1cn(-c2ccccc2Cl)c(=O)n1Cc1ccc(-c2ccccc2-c2nnn[nH]2)nc1 [Compound 216] | 50 | >180 | – | – | – | –
2.6 | CCCCc1cn(-c2c(OC)cccc2OC)c(=O)n1Cc1ccc(-c2ccccc2-c2nnn[nH]2)nc1 [Compound 230] | 25 | >180 | – | – | – | –
4.5 | CCCCc1cn(-c2ccccc2CC)c(=O)n1Cc1ccc(-c2ccccc2-c2nnn[nH]2)nc1 [Compound 228] | 80 | >180 | – | – | – | –
4.8 | CCCCc1cn(-c2c(Cl)cccc2Cl)c(=O)n1Cc1ccc(-c2ccccc2-c2nnn[nH]2)nc1 [Compound 221] | 25 | >180 | – | – | – | –
5 | CCCCc1cn(-c2c(CC)cccc2CC)c(=O)n1Cc1ccc(-c2ccccc2-c2nnn[nH]2)nc1 [Compound 234] | 20 | – | – | – | – | –
23 | CCCCc1cn(CCC2=CCCC2)c(=O)n1Cc1ccc(-c2ccccc2-c2nnn[nH]2)nc1 [Compound 212] | 15 | 180 | – | – | – | –
22 | CCCCc1cn(CC2CCCC2)c(=O)n1Cc1ccc(-c2ccccc2-c2nnn[nH]2)nc1 [Compound 208] | 50 | >180 | – | – | – | –
4.9 | CCCCc1cn([C@H]2[C@H](C)CCC[C@@H]2C)c(=O)n1Cc1ccc(-c2ccccc2-c2nnn[nH]2)nc1 [Compound 236] | 70 | >180 | – | – | – | –
19 | CCCCc1cn(-c2ccccc2C(C)(C)C)c(=O)n1Cc1ccc(-c2ccccc2-c2nnn[nH]2)nc1 [Compound 229] | 40 | >180 | – | – | – | –
4.4 | CCCCc1nc(CC(C)(C)C)nn1Cc1ccc(-c2ccccc2-c2nnn[nH]2)nc1 [Compound 249] | 20 | >180 | – | – | – | –
3.6 | CCCCc1cn(CCc2ccccc2)c(=O)n1Cc1ccc(-c2ccccc2-c2nnn[nH]2)nc1 [Compound 210] | 15 | 180 | – | – | – | –
18 | CCCCc1cn(CCC2CCCC2)c(=O)n1Cc1ccc(-c2ccccc2-c2nnn[nH]2)nc1 [Compound 211] | 35 | >180 | – | – | – | –
4.4 | CCCCc1cn(-c2c(C)cc(C)cc2C)c(=O)n1Cc1ccc(-c2ccccc2-c2nnn[nH]2)nc1 [Compound 232] | 70 | >180 | – | – | – | –
1.7 | CCCCc1cn(-c2cccn2CC)c(=O)n1Cc1ccc(-c2ccccc2-c2nnn[nH]2)nc1 [Compound 238] | 15 | >180 | – | – | – | –
520 | CCCCc1nc(-c2ccccc2Cl)n(Cc2ccc(-c3ccccc3-c3nnn[nH]3)nc2)n1 [Compound 268] | 0 | – | – | – | – | –
7 | CCCCc1cn(-c2c(F)cccc2F)c(=O)n1Cc1ccc(-c2ccccc2-c2nnn[nH]2)nc1 [Compound 220] | 75 | 120 | – | – | – | –
3.6 | CCCCc1cn(-c2c(C)cccc2Cl)c(=O)n1Cc1ccc(-c2ccccc2-c2nnn[nH]2)nc1 [Compound 231] | 75 | >180 | – | – | – | –
9.4 | CCCCc1cn(-c2ccccc2C)c(=O)n1Cc1ccc(-c2ccccc2-c2nnn[nH]2)nc1 [Compound 217] | 65 | >180 | – | – | – | –
21 | CCCCc1nc(-c2c(F)cccc2F)n(Cc2ccc(-c3ccccc3-c3nnn[nH]3)nc2)n1 [Compound 270] | – | – | – | – | – | –

Source: patent publication US6653306B1, “Epoxy-steroidal aldosterone antagonist and angiotensin II antagonist combination therapy” (G.D. Searle & Co., priority 1995, dated 2003)
